Test results taken from patent publication US9901621B2, “Composition for treating hyperlipidemia comprising oxyntomodulin derivative” (HANMI PHARM. CO., LTD., priority 2012, dated 2018).
Where a SMILES comes first, the peptide text is derived from it. [ ]: non-standard residue; d: D form. Aib = CC(C)(N)C(=O)O

Columns and labels:
human GLP-1 receptor = target: T1, human GLP-1 receptor (Homo sapiens, UniProt P43220); assay: cAMP response in CHO cells expressing GLP-1 receptor (CHO/GLP-1R); format: cell-based
T1 construct: Using a portion corresponding to the ORF (open reading frame) of cDNA; expressed in transfected cells; host or cells: CHO DG44
Method: The PCR product was cloned into the known animal cell expression vector x0GC/dhfr, thereby constructing the recombinant vector x0GC/GLP-1R.
(§1) The recombinant vector x0GC/GLP-1R was introduced into a CHO DG44 cell line, cultured in DMEM/F12 (10% FBS) medium, using lipofectamine (Invitrogene, USA), to obtain a transformant. The transformant was incubated in a selective medium containing 1 mg/mL G418 and 10 nM methotraxate, and monoclonal cell lines were selected therefrom.
(§2) The cultured cells were washed with KRB buffer, suspended in 40 ml of 1 mM IBMX-containing KRB buffer, and then allowed to stand at room temperature for 5 minutes. […] Then, 20 ml of cell lysis buffer was added to lyse the cells, and the concentration of cAMP in each of the cell lysates was measured using a cAMP assay kit (Molecular Device, USA).

human glucagon receptor = target: T2, human glucagon receptor (Homo sapiens, UniProt P47871); assay: cAMP response in CHO cells expressing glucagon receptor (CHO/GCGR); format: cell-based
T2 construct: Using a portion corresponding to the ORF (open reading frame) of cDNA; expressed in transfected cells; host or cells: CHO DG44
Method: The PCR product was cloned into the known animal cell expression vector x0GC/dhfr, thereby constructing the recombinant vector x0GC/GCGR.
as §1, with “x0GC/GCGR” for “x0GC/GLP-1R”
as §2

[1] = system: high-fat diet-induced hyperlipidemia hamsters; assay: Blood lipid levels in high-fat diet hamsters, comparison with VICTOZA (Example 6); format: in vivo, Golden Syrian hamsters; conditions: vs 35.5 nmol/kg VICTOZA s.c., 3.25 nmol/kg SEQ ID NO: 25-Fc or 8.96 nmol/kg SEQ ID NO: 23-Fc s.c.
Method: The effect of reducing lipid levels was compared between the oxyntomodulin derivative conjugate and known VICTOZA®.
As described in Example 5, hamsters were divided into a normal hamster group and hamster groups fed with a high-fat diet. The normal hamster group was administered subcutaneously with 5 ml/kg of DPBS once or more a week. The hamster groups fed with high-fat diet were divided into a group administered subcutaneously with 5 ml/kg of DPBS once or more a week, a group administered subcutaneously with 35.5 nmol/kg of VICTOZA® once or more a week, a group administered subcutaneously with 3.25 nmol/kg of the SEQ ID NO: 25-Fc conjugate, and a group administered subcutaneously with 8.96 nmol/kg of the SEQ ID NO:23-Fc conjugate, and the blood lipid levels of the groups were analyzed.

[2] = system: high-fat diet-induced hyperlipidemia hamsters; assay: Reduction in lipid levels in hyperlipidemia model hamsters (Example 5); format: in vivo, Golden Syrian hamsters; conditions: vs high-fat diet group, s.c. once a week for 2 weeks, 3.25 nmol/kg SEQ ID NO: 25-Fc or 8.96 nmol/kg SEQ ID NO: 23-Fc
Description: 8 week-old male hamsters (Golden Syrian hamsters, 120-130 g) were purchased from Vital River China. It is known that hamsters show blood lipid profiles similar to humans, unlike other rodents, and are sensitive to high-fat diets.
The animals were allowed access to a sterilized high-fat diet (Purina 5001 containing 11.5% maize oil, 11.5% coconut oil, 0.5% cholesterol, and 0.25% deoxycholate; Dyets, Bethlehem, Pa.) or a standard rodent diet (low fat, 2018; Harlan Teklad, Madison, Wis.). A normal diet group was allowed access to filtered and UV-sterilized tap water, and a high-fat diet group was allowed access to water containing 10% fructose. The animals were kept in a breeding chamber satisfying GLP standards under a 12-hr light/12-hr dark cycle (lighting: am 6 to pm 6), and all the experimental procedures were performed according to the standard guideline for animal experiments. Drug administration was started after 3 weeks of hyperlipidemia induction, and the animals were divided into four groups (n=6) as shown in Table 3 below.
(§3) Group 3 (hyperlipidemia-induced group+group administered with 3.25 nmol/kg of SEQ ID NO: 25-Fc conjugate) was fed with a high-fat diet to induce hyperlipidemia, and then administered with 3.25 nmol/kg of the SEQ ID NO: 25-Fc conjugate (prepared in Example 4) once a week at an injection dose of 5 ml/kg.
as §3, with “4” for “3”, “8.96” for “3.25”, “23-Fc” for “25-Fc”, “3)” for “4)”
Saline or the drug was administered into each group (n=6) for 2 weeks, and then the effects thereof on a reduction in lipid levels were analyzed.
Blood was collected from the hamsters which were administered or not administered with the long-acting oxyntomodulin derivative as described in Example 5-1, and the lipid levels of the blood were analyzed using HITACHI 7020.
FIGS. 1 to 5 show the change in blood triglyceride levels (FIG. 1), the change in blood total cholesterol levels (FIG. 2), the change in LDL-cholesterol levels (FIG. 3), blood HDL-cholesterol levels (FIG. 4), and the change in the blood HDL/LDL-cholesterol ratio (FIG. 5). The obtained results were statistically processed, and the mean values and the standard deviations of the mean values were calculated. In the verification of significance between the groups (n=6), data were statistically processed using Dunnett's test of one-way ANOVA, and a value of p<0.05 was considered statistically significant.

T2 sequence (P47871 26-477): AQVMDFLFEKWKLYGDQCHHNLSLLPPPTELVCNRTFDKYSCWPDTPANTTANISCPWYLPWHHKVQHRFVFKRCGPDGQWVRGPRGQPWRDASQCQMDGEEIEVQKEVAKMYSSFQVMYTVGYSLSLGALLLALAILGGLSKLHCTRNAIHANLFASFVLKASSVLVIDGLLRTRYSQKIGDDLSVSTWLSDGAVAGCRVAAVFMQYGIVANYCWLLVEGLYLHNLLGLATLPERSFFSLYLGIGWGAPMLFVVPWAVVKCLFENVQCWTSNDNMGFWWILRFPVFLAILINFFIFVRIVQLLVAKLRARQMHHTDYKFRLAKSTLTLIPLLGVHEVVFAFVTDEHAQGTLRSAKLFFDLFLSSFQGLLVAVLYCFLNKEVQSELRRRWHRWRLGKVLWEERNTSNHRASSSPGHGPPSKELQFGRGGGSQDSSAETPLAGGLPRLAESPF
T1 sequence (P43220 24-463): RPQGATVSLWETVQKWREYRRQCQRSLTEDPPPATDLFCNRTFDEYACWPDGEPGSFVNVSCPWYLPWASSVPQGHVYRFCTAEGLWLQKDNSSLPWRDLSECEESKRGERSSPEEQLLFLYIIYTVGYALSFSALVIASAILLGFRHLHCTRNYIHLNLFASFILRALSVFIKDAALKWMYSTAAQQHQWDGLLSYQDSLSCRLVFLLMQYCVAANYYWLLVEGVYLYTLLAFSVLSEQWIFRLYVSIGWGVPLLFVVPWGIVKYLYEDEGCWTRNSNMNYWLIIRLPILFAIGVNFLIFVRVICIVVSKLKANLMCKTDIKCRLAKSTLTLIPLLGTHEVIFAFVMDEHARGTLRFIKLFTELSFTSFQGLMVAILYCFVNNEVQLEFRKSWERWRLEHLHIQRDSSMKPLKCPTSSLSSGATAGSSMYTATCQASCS

| EC50 (human GLP-1 receptor) | EC50 (human glucagon receptor) | Compound | blood total cholesterol levels compared to VICTOZA ([1]; FIG. 6) | blood LDL-cholesterol level compared to VICTOZA ([1]; FIG. 7) | blood HDL-cholesterol levels compared to VICTOZA ([1]; FIG. 8) | HDL/LDL-cholesterol ratio compared to VICTOZA ([1]; FIG. 9) | blood triglyceride levels compared to VICTOZA ([1]; FIG. 10) | blood triglyceride levels ([2]; FIG. 1) | blood total cholesterol levels ([2]; FIG. 2) | blood LDL-cholesterol levels ([2]; FIG. 3) | blood HDL-cholesterol levels ([2]; FIG. 4) | blood HDL/LDL-cholesterol ratio ([2]; FIG. 5) |
| --- | --- | --- | --- | --- | --- | --- | --- | --- | --- | --- | --- | --- |
| 2.46 nM | 5.8 nM | CSCC[C@H](NC(=O)[C@H](CC(C)C)NC(=O)[C@H](Cc1c[nH]c2ccccc12)NC(=O)[C@H](CS)NC(=O)[C@@H](NC(=O)[C@H](Cc1ccccc1)NC(=O)[C@H](CCC(=O)O)NC(=O)[C@H](CCCCN)NC(=O)[C@H](C)NC(=O)[C@H](CCCNC(=N)N)NC(=O)[C@H](CCCCN)NC(=O)[C@H](CCC(=O)O)NC(=O)[C@H](CC(=O)O)NC(=O)[C@H](CC(C)C)NC(=O)[C@H](Cc1ccc(O)cc1)NC(=O)[C@H](CCCCN)NC(=O)[C@H](CO)NC(=O)[C@H](Cc1ccc(O)cc1)NC(=O)[C@H](CC(=O)O)NC(=O)[C@H](CO)NC(=O)[C@@H](NC(=O)[C@H](Cc1ccccc1)NC(=O)[C@@H](NC(=O)CNC(=O)[C@H](CCC(N)=O)NC(=O)C(C)(C)NC(=O)[C@@H](N)Cc1c[nH]cn1)[C@@H](C)O)[C@@H](C)O)C(C)C)C(=O)N[C@@H](CC(N)=O)C(=O)N[C@H](C(=O)O)[C@@H](C)O [SEQ ID NO: 23] (H-H[Aib]QGTFTSDYSKYLDEKRAKEFVCWLMNT-OH; C-terminus assumed) |  |  |  |  |  |  |  |  |  |  |
|  |  | SEQ ID NO: 25-Fc conjugate: oxyntomodulin derivative of SEQ ID NO: 25 linked at cysteine 30 via MAL-10K-ALD PEG to immunoglobulin Fc (Example 4) (HXQGTFTSDYSKYLDEKRAKEFVQWLMNTC; PEG linker at Cys30 to immunoglobulin Fc; MOD_RES (2)..(2) Aib; (16)..(20) Ring formation between residues) | decrease | decrease | significant increases | significant increases | decrease | significantly decreased | significantly decreased | significantly decreased | significant increase | significant increase |
